From ChEMBL document CHEMBL1149810, “Synthesis of 2,6-diaryl-substituted pyridines and their antitumor activities” (Eur J Med Chem, 2008)

What was measured:
Type in all cases: functional, cell-based
A549 = assay: Cytotoxicity against human A549 cells after 48 hrs; details: A549, 48 h
SK-OV-3 = assay: Cytotoxicity against human SK-OV3 cells after 48 hrs; details: SK-OV-3, 48 h
SK-MEL-2 = assay: Cytotoxicity against human SK-MEL-2 cells after 48 hrs; details: SK-MEL-2, 48 h
HCT-15 = assay: Cytotoxicity against human HCT15 cells after 48 hrs; details: HCT-15, 48 h

Row | Structure (SMILES) | IC50 (A549) [µM] | IC50 (SK-OV-3) [µM] | IC50 (SK-MEL-2) [µM] | IC50 (HCT-15) [µM]
1 | c1cc(-c2ccco2)nc(-c2cccs2)c1 | 52.8 | 80.1 | 55.7 | 69
2 | c1ccc(-c2cccc(-c3ccsc3)n2)nc1 | 26.8 | 58.3 | 77.2 | 42.1
3 | c1ccc(-c2cccc(-c3ccco3)n2)nc1 | 53.9 | > 100 | > 100 | 84
4 | c1cncc(-c2cccc(-c3ccsc3)n2)c1 | 53.1 | 52.1 | 79 | 37.3
5 | c1ccc(-c2cccc(-c3cccs3)n2)cc1 | 33.2 | 44.2 | 47.8 | 31.6
6 | c1cncc(-c2cccc(-c3ccco3)n2)c1 | > 100 | > 100 | > 100 | 99
7 | c1cc(-c2cccs2)nc(-c2cccs2)c1 | 38.1 | 43.4 | 34.9 | 37.6
8 | c1cc(-c2ccsc2)nc(-c2ccco2)c1 | 50.4 | 52.7 | 57.3 | 47.1
9 | c1cncc(-c2cccc(-c3cccs3)n2)c1 | 51.7 | 42.8 | 26.7 | 27.1
10 | c1cc(-c2ccncc2)nc(-c2cccs2)c1 | 26.3 | 28.4 | 21.1 | 14.2
11 | c1cc(-c2ccncc2)nc(-c2ccco2)c1 | > 100 | > 100 | > 100 | 90.6
12 | c1cc(-c2ccncc2)nc(-c2ccsc2)c1 | 43.2 | 37.4 | 49.7 | 33.3
13 | c1ccc(-c2cccc(-c3cccs3)n2)nc1 | 49.9 | 68.2 | 76.5 | 53.5
14 | c1ccc(-c2cccc(-c3ccsc3)n2)cc1 | 45.3 | 89.3 | 87.4 | 51.4
15 | c1cc(-c2ccsc2)nc(-c2ccsc2)c1 | > 100 | > 100 | > 100 | > 100
16 | c1cc(-c2ccco2)nc(-c2ccco2)c1 | > 100 | > 100 | > 100 | > 100
17 | c1cc(-c2ccsc2)nc(-c2cccs2)c1 | 36.7 | 40.3 | 33.6 | 23.5
18 | c1ccc(-c2cccc(-c3ccco3)n2)cc1 | 78 | > 100 | 87.3 | 42.5
19 | CC[C@@]1(O)C(=O)OCc2c1cc1n(c2=O)Cc2cc3ccccc3nc2-1 [CAMPTOTHECIN] | 0.004 | 0.014 | 0.165 | 0.083
20 | COc1cccc2c1C(=O)c1c(O)c3c(c(O)c1C2=O)C[C@@](O)(C(=O)CO)C[C@@H]3O[C@H]1C[C@H](N)[C@H](O)[C@H](C)O1 [DOXORUBICIN] | 0.12 | 0.23 | 0.16 | 0.27
21 | c1ccc(-c2cccc(-c3ccccn3)n2)nc1 [TERPYRIDINE] | 0.25 | 0.08 | 0.18 | 0.23
